Some results are limits rather than exact numbers.

One test concerns MCF7 breast tumour cells. Nature of the test: MCF7 proliferation assay. To be noted: for antiproliferative activity, MCF7 (in words): summary of Tab. 2; for IC50: Homo sapiens, MCF7, 96 h, 4 days incubation, crystal violet staining. It is filed as cell-based, human. As to the method: Cultivated human MCF7 breast tumour cells (ATCC HTB-22) were plated out in a density of 5000 cells/measurement point in 200 μl of growth medium (RPMI1640, 10% foetal calf serum, 2 mU/mL insulin, 0.1 nM oestradiol) in a 96-well multititre plate. After 24 hours, the cells from a plate (zero plate) were stained with crystal violet (see below), while the medium in the other plates was replaced by fresh culture medium (200 μl) to which the test substances had been added in various concentrations (0 μM, and in the range 0.1-30 μM; the final concentration of the solvent dimethyl sulphoxide was 0.5%). The cells were incubated in the presence of the test substances for 4 days. The cell proliferation was determined by staining the cells with crystal violet: the cells were fixed by adding 20 μl/measurement point of an 11% strength glutaraldehyde solution at room temperature for 15 min. After the fixed cells had been washed three times with water, the plates were dried at room temperature. The cells were stained by adding 100 μl/measurement point of a 0.1% strength crystal violet solution (pH adjusted to pH 3 by adding acetic acid). After the stained cells had been washed three times with water, the plates were dried at room temperature. The dye was dissolved by adding 100 μl/measurement point of a 10% strength acetic acid solution, and the extinction was determined by photometry at a wavelength of 595 nm. The percentage change in cell growth was calculated by normalizing the measurements to the extinctions of the zero point plate (=0%) and the extinction of the untreated (0 μM) cells (=100%). The IC50 values were determined by means of a 4-parameter fit using the company's own software.

In a further test the target is T1, CDK1/CycB (Homo sapiens, UniProt P06493).
T1 construct: GST; purchased ProQinase GmbH, Freiburg; host or cells: baculovirus-infected insect cells (Sf9)
As to the kind of experiment: CDK1/CycB kinase assay. The test is classed as biochemical. The following applies: 0.5 μM ATP, histone IIIS, 22° C., 10 min. As to the method: Recombinant CDK1- and CycB-GST fusion proteins, purified from baculovirus-infected insect cells (Sf9), were purchased from ProQinase GmbH, Freiburg. The histone IIIS used as kinase substrate can be purchased from Sigma. CDK1/CycB (200 ng/measurement point) was incubated in the presence of various concentrations of test substances (0 μM, and within the range 0.01-100 μM) in assay buffer [50 mM Tris/HCl pH 8.0, 10 mM MgCl2, 0.1 mM Na ortho-vanadate, 1.0 mM dithiothreitol, 0.5 μM ATP, 10 μg/measurement point histone IIIS, 0.2 μCi/measurement point ^33P-gamma-ATP, 0.05% NP40, 1.25% dimethyl sulphoxide] at 22° C. for 10 min. The reaction was stopped by adding EDTA solution (250 mM, pH 8.0, 15 μl/measurement point).
15 μl of each reaction mixture were loaded onto P30 filter strips (from Wallac), and non-incorporated ^33P-ATP was removed by washing the filter strips three times in 0.5% strength phosphoric acid for 10 min each time. After the filter strips had been dried at 70° C. for 1 hour, the filter strips were covered with scintillator strips (MeltiLex™ A, from Wallac) and baked at 90° C. for 1 hour. The amount of incorporated ^33P (substrate phosphorylation) was determined by scintillation measurement in a gamma radiation counter (Wallac).

A further test concerns the target T2, CDK2/CycE (Homo sapiens, UniProt P24941).
T2 construct: GST; purchased ProQinase GmbH, Freiburg; host or cells: baculovirus-infected insect cells (Sf9)
As to the kind of experiment: CDK2/CycE kinase assay. The test is classed as biochemical. The following applies: 0.5 μM ATP, histone IIIS, 22° C., 10 min. Here is the method:
Recombinant CDK2- and CycE-GST fusion proteins, purified from baculovirus-infected insect cells (Sf9), were purchased from ProQinase GmbH, Freiburg. The histone IIIS used as kinase substrate was purchased from Sigma.
CDK2/CycE (50 ng/measurement point) was incubated in the presence of various concentrations of test substances (0 μM, and within the range 0.01-100 μM) in assay buffer [50 mM Tris/HCl pH 8.0, 10 mM MgCl2, 0.1 mM Na ortho-vanadate, 1.0 mM dithiothreitol, 0.5 μM ATP, 10 μg/measurement point histone IIIS, 0.2 μCi/measurement point ^33P-gamma-ATP, 0.05% NP40, 1.25% dimethyl sulphoxide] at 22° C. for 10 min. The reaction was stopped by adding EDTA solution (250 mM, pH 8.0, 15 μl/measurement point).
15 μl of each reaction mixture were loaded onto P30 filter strips (from Wallac), and non-incorporated ^33P-ATP was removed by washing the filter strips three times in 0.5% strength phosphoric acid for 10 min each time.
After the filter strips had been dried at 70° C. for 1 hour, the filter strips were covered with scintillator strips (MeltiLex™ A, from Wallac) and baked at 90° C. for 1 hour. The amount of incorporated ^33P (substrate phosphorylation) was determined by scintillation measurement in a gamma radiation counter (Wallac).

A further test addresses T3, KDR (VEGFR2) (Homo sapiens, UniProt P35968).
T3 construct: made in house; host or cells: E. coli
Nature of the test: KDR kinase assay. It is filed as biochemical. The following applies: 10 μM ATP, 22° C., 45 min, HTRF. As to the method: Recombinant KDR protein was expressed in E. coli and then purified. The kinase substrate used was the biotinylated peptide having the amino acid sequence biotin-DFGLARDMYDKEYYSVG, which was purchased from Biosynthan. KDR [test volume 5 μl] was incubated in the presence of various concentrations of test substances (0 μM, and 10 measurement points within the range 0.001-20 μM in duplicate) in assay buffer [50 mM HEPES pH 7.0, 25.0 mM MgCl2, […], 0.1 mM Na ortho-vanadate, 1.0 mM dithiothreitol, 0.001% NP40, 10 μM ATP, 0.03 μM substrate peptide […], 1.0% dimethyl sulphoxide] at 22° C. for 45 min. The reaction was stopped by adding 5 μl of an EDTA/detection solution [50 mM HEPES pH 7.5, 125 mM EDTA, 0.2% BSA, 0.1 μM streptavidin-XLent (from CisBio), 2 nM PT66-Eu (from PerkinElmer)]. The fluorescence emission at 620 nm and 665 nm after excitation with light of the wavelength 350 nm was measured in a Rubystar HTRF instrument from BMG Labsystems.
The measured data (ratio of emission 665 divided by emission 620 multiplied by 10 000) were normalized to 0% inhibition (enzyme reaction without inhibitor) and 100% inhibition (all assay components apart from enzyme). The IC50 values were determined by means of a 4-parameter fit using the company's own software.

For a further test, the target named is T4, Aurora-C (Homo sapiens, UniProt Q9UQB9).
T4 construct: made in house; host or cells: transiently transfected HEK293 cells
T4 sequence (Q9UQB9 1-309): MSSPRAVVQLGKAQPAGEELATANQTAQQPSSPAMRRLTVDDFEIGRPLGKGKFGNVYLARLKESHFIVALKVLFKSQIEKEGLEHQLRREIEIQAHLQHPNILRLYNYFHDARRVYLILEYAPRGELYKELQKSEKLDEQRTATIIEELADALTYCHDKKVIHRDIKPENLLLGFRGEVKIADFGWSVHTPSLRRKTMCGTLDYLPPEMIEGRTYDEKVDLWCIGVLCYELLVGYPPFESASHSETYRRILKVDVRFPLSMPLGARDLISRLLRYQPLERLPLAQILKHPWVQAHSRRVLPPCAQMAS
Nature of the test: Aurora-C kinase assay. It is filed as biochemical. The following applies: for IC50: 3 μM ATP, 22° C., 90 min. As to the method:
Recombinant Aurora-C protein was expressed in transiently transfected HEK293 cells and then purified. The kinase substrate used was the biotinylated peptide having the amino acid sequence biotin-FMRLRRLSTKYRT, which was purchased from Jerini AG in Berlin.
Aurora-C [5 nM in the test mixture, test volume 5 μl] was incubated in the presence of various concentrations of test substances (0 μM and 10 measurement points within the range 0.001-20 μM in duplicate) in assay buffer [25 mM HEPES pH 7.4, 0.5 mM MnCl2, 0.1 mM Na ortho-vanadate, 2.0 mM dithiothreitol, 0.05% bovine serum albumin (BSA), 0.01% Triton X-100, 3 μM adenosine trisphosphate (ATP), 0.67 nCi/μl gamma-^33P-ATP, 2.0 μM substrate peptide biotin-FMRLRRLSTKYRT, 1.0% dimethyl sulphoxide] at 22° C. for 90 min. The reaction was stopped by adding 12.5 μl of an EDTA/detection solution [16 mM EDTA, 40 mM ATP, 0.08% Triton X-100, 4 mg/ml PVT streptavidin SPA beads (from Amersham)]. After incubation for 10 minutes, the SPA beads were pelleted by centrifugation at 1000×G for 10 minutes. Measurement took place in a PerkinElmer Topcount scintillation counter. The measured data were normalized to 0% inhibition (enzyme reaction without inhibitor) and 100% inhibition (enzyme reaction in the presence of 0.1 μM staurosporine (from Sigma)). The IC50 values were determined by means of a 4-parameter fit using the company's own software.

T3 sequence (P35968 20-1356, species assumed): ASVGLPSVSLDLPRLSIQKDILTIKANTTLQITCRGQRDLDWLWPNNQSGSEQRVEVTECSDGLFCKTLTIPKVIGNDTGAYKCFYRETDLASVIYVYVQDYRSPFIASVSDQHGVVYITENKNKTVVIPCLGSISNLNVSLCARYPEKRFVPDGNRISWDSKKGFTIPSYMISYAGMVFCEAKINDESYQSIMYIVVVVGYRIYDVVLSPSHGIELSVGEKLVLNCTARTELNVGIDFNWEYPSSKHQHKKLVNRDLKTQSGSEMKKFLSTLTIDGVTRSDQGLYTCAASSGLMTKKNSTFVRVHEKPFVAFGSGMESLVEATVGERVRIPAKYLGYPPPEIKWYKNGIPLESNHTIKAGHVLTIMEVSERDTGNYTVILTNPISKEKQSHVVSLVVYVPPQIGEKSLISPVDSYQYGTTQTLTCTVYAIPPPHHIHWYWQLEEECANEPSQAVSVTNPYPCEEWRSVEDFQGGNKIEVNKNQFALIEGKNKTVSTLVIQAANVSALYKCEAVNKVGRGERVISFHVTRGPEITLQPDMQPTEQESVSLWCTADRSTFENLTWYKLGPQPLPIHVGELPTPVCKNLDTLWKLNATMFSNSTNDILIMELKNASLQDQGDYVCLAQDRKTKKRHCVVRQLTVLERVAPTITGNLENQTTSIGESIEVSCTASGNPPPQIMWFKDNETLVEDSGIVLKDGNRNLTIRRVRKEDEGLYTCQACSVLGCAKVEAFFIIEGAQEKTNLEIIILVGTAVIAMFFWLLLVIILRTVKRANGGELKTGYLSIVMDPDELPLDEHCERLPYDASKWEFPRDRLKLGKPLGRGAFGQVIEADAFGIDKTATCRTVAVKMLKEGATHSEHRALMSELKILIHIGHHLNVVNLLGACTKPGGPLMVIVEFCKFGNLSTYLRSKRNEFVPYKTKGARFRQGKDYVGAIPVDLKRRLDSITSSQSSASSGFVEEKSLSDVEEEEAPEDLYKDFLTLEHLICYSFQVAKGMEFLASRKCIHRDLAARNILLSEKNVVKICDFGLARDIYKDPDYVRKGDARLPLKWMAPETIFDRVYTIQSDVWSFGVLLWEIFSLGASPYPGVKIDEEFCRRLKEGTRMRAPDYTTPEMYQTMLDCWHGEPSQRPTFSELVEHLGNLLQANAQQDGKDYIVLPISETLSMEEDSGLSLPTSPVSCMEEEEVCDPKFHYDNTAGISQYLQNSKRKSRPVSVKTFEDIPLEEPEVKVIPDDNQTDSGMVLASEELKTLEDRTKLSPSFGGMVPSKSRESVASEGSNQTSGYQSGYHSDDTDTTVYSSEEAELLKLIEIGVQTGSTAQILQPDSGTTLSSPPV
T1 sequence (P06493 whole entry): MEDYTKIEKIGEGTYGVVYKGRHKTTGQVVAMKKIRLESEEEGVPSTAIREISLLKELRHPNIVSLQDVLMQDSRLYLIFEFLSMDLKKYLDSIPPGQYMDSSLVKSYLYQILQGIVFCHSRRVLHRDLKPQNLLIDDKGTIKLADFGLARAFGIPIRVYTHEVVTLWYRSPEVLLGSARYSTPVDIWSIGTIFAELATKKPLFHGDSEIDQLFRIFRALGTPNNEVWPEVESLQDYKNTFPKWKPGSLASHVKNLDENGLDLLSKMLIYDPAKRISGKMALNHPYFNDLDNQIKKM
T1 sequence (P14635 whole entry partner): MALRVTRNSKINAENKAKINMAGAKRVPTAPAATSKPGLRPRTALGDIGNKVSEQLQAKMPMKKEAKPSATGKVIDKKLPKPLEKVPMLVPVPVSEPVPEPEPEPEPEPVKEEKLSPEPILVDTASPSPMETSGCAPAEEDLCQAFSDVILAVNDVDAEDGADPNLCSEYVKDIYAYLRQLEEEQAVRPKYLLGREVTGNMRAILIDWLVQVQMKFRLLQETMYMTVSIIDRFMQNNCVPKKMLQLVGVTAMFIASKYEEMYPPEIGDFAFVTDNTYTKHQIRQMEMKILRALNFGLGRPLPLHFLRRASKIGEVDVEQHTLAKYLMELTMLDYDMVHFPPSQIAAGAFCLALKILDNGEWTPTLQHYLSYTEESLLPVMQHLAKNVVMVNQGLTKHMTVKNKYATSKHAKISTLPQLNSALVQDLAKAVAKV

On to `Cc1ccc(S(=O)(=O)N=S(C)c2ccc(Nc3ncc(Br)c(N[C@H](C)C(C)(C)O)n3)cc2)nc1` (mixture of isomers) [Example 10, (RS)—S-{4-[(5-Bromo-4-{[(R)-2-hydroxy-1,2-dimethylpropyl]amino}pyrimidin-2-yl)amino]phenyl}-S-methyl-N-[(5-methyl-2-pyridyl)sulphonyl]sulphimide], for which the “antiproliferative activity, MCF7 (in words)” value in the test on MCF7 breast tumour cells was “excellent antiproliferative activity”.

Take `C[C@@H](Nc1nc(Nc2ccc(S(C)=NS(=O)(=O)c3ccc(Cl)s3)cc2)ncc1Br)C(C)(C)O` (mixture of isomers) [Example 17, (RS)—S-{4-[(5-Bromo-4-{[(R)-2-hydroxy-1,2-dimethylpropyl]amino}pyrimidin-2-yl)amino]phenyl}-N-[(5-chloro-2-thienyl)sulphonyl]-S-methylsulphimide]: the “antiproliferative activity, MCF7 (in words)” value with MCF7 breast tumour cells is recorded as “excellent antiproliferative activity”.

On to `Cc1ccc(S(=O)(=O)N=S(C)c2cccc(Nc3ncc(Br)c(NC(C)C)n3)c2)cc1` (racemic) [Example 2, (RS)—S-(3-{[5-Bromo-4-(isopropylamino)pyrimidin-2-yl]amino}phenyl)-S-methyl-N-(tolylsulphonyl)sulphimide], for which the IC50 on CDK1/CycB is above 1 µM; on CDK2/CycE, above 1 µM; at KDR (VEGFR2) it was 0.2 µM.

Turning to `Cc1ccc(S(=O)(=O)N=S(C)c2ccc(Nc3ncc(Br)c(NC4CC4)n3)cc2)cc1` (racemic) [Example 3, (RS)—S-(4-{[5-Bromo-4-(cyclopropylamino)pyrimidin-2-yl]amino}phenyl)-S-methyl-N-(tolylsulphonyl)sulphimide], the IC50 against Aurora-C is 0.09 µM; against CDK1/CycB, above 1 µM; on KDR (VEGFR2) it was 0.013 µM; in the test on MCF7 breast tumour cells, 0.34 µM. Also, the “inhibition of Aurora C kinase (in words)” value against Aurora-C (summary of Tab. 1) is given as “inhibits”.

On to `Cc1ccc(S(=O)(=O)N=S(C)c2cccc(Nc3ncc(Br)c(NC4CC4)n3)c2)cc1` (racemic) [Example 4, (RS)—S-(3-{[5-Bromo-4-(cyclopropylamino)pyrimidin-2-yl]amino}phenyl)-S-methyl-N-(tolylsulphonyl)sulphimide], for which the figures for the IC50 on CDK1/CycB, on CDK2/CycE and against KDR (VEGFR2) were above 1 µM, above 1 µM and 0.17 µM, respectively.

With `Cc1ccc(S(=O)(=O)N=S(C)c2ccc(Nc3nccc(NC(C)C)n3)cc2)cc1` (racemic) [Example 5, (RS)—S-(4-{[4-(Isopropylamino)pyrimidin-2-yl]amino}phenyl)-S-methyl-N-(tolylsulphonyl)sulphimide], the IC50 was 4.6 µM on Aurora-C, above 1 µM against CDK1/CycB, above 1 µM against CDK2/CycE and 0.76 µM against KDR (VEGFR2).

Consider `Cc1ccc(S(=O)(=O)N=S(C)c2ccc(Nc3ncc(Br)c(Nc4ccccc4)n3)cc2)cc1` (racemic) [Example 6, (RS)—S-{4-[(4-Anilino-5-bromopyrimidin-2-yl)amino]phenyl}-S-methyl-N-(tolylsulphonyl)sulphimide], for which the IC50 on CDK1/CycB was above 1 µM; on CDK2/CycE, above 1 µM; against KDR (VEGFR2) it was 0.12 µM.

For `Cc1ccc(S(=O)(=O)N=S(C)c2ccc(Nc3ncc(Br)c(NCCO)n3)cc2)cc1` (racemic) [Example 7, (RS)—S-[4-({5-Bromo-4-[(2-hydroxyethyl)amino]pyrimidin-2-yl}amino)phenyl]-S-methyl-N-(tolylsulphonyl)sulphimide], the IC50 on Aurora-C is 0.68 µM; against CDK1/CycB, above 1 µM; against CDK2/CycE, above 1 µM; at KDR (VEGFR2) it was 0.043 µM.

For the molecule `CC(=O)NCCNc1nc(Nc2ccc(S(C)=NS(=O)(=O)c3ccc(C)cc3)cc2)ncc1Br` (racemic) [Example 23, (RS)—S-{4-[(4-{[2-(Acetylamino)ethyl]amino}-5-bromopyrimidin-2-yl)amino]-phenyl}-S-methyl-N-(tolylsulphonyl)sulphimide], the IC50 amounted to 0.036 µM against Aurora-C, 0.99 µM at CDK1/CycB, 0.035 µM against KDR (VEGFR2) and 2.2 µM with MCF7 breast tumour cells.

(Values after patent US7943629B2, “Sulphimides as protein kinase inhibitors” (Bayer Schering Pharma AG, priority 2006, dated 2011).)
